US6764999B2, “Nasal delivery of parasiticides” (priority 2002, dated 2004)

Columns and labels:
[1] = serum levels of ivermectin after administration to the nasal pharynx; format: in vivo, beef steers
Procedure: To study the dose/response efficacy of nasal administration of macrocyclic lactone parasicides, three (3) beef steers of mixed breeding were used to evaluate three treatments. These three treatments were:
Treatments were applied and cattle were bled via jugular venipuncture at 0, 6, 24, 48, and 96 hours post-dosing.
Table I recites serum levels of ivermectin, in nanograms per milliliter, for the three treatments recited above at 0, 6, 24, 48, and 96 hours post dosing by nasal administration. Each treatment included delivering a 1 ml mixture comprising ivermectin and propylene glycol to the nasal pharnyx of the animal.

most parasites = conditions: cattle; cited from earlier work
[2] = injection, about 200 micrograms per kilogram of bodyweight; cited from earlier work
[3] = system: Trichostrongylus colubriformis; conditions: cited from earlier work
[4] = topical, 500 micrograms per kilogram body weight; cited from earlier work
[5] = autoclave temperatures; cited from earlier work
Haemonchus contortus = conditions: cited from earlier work

ivermectin
serum level of ivermectin ([1]; Treatment 1, nasal, about 248 μg/kg in propylene glycol, 0 Hours): 0.19 nanograms per milliliter
serum level of ivermectin ([1]; Treatment 1, nasal, about 248 μg/kg in propylene glycol, 6 Hours): 5.87 nanograms per milliliter
serum level of ivermectin ([1]; Treatment 1, nasal, about 248 μg/kg in propylene glycol, 24 Hours): 15.24 nanograms per milliliter
serum level of ivermectin ([1]; Treatment 1, nasal, about 248 μg/kg in propylene glycol, 48 Hours): 11.22 nanograms per milliliter
serum level of ivermectin ([1]; Treatment 1, nasal, about 248 μg/kg in propylene glycol, 96 Hours): 7.58 nanograms per milliliter
maximum serum level CMAX(1) ([1]; Treatment 1, nasal, about 248 micrograms per kilogram body weight): about 15 nanograms of ivermectin per ml of blood
CMAX(1) ([1]; Treatment 1, nasal, about 248 micrograms per kilogram, as restated): greater than 15 ng/ml
serum level of ivermectin ([1]; Treatment 2, nasal, about 409 μg/kg in propylene glycol, 0 Hours): 0.21 nanograms per milliliter
serum level of ivermectin ([1]; Treatment 2, nasal, about 409 μg/kg in propylene glycol, 6 Hours): 6.58 nanograms per milliliter
serum level of ivermectin ([1]; Treatment 2, nasal, about 409 μg/kg in propylene glycol, 24 Hours): 24.48 nanograms per milliliter
serum level of ivermectin ([1]; Treatment 2, nasal, about 409 μg/kg in propylene glycol, 48 Hours): 19.71 nanograms per milliliter
serum level of ivermectin ([1]; Treatment 2, nasal, about 409 μg/kg in propylene glycol, 96 Hours): 13.88 nanograms per milliliter
maximum serum level CMAX(2) ([1]; Treatment 2, nasal, about 409 micrograms per kilogram body weight): about 24 nanograms of ivermectin per ml of blood
serum level of ivermectin ([1]; Treatment 3, nasal, about 872 μg/kg in propylene glycol, 0 Hours): 0.22 nanograms per milliliter
serum level of ivermectin ([1]; Treatment 3, nasal, about 872 μg/kg in propylene glycol, 6 Hours): 22.51 nanograms per milliliter
serum level of ivermectin ([1]; Treatment 3, nasal, about 872 μg/kg in propylene glycol, 24 Hours): 40.79 nanograms per milliliter
serum level of ivermectin ([1]; Treatment 3, nasal, about 872 μg/kg in propylene glycol, 48 Hours): 30.53 nanograms per milliliter
serum level of ivermectin ([1]; Treatment 3, nasal, about 872 μg/kg in propylene glycol, 96 Hours): 19.38 nanograms per milliliter
maximum serum level CMAX(3) ([1]; Treatment 3, nasal, about 872 micrograms per kilogram body weight): about 41 nanograms of ivermectin per ml of blood
time for which serum levels of ivermectin exceed 2 ng ml^−1 ([1]; all three treatments, nasal): > 96 h
serum level sufficient to protect the animal against reinfestation of most parasites (most parasites): > 2 ng/mL
CMAX serum level [2]: about 30 ng/ml
inhibition of pharyngeal pumping compared with motility [3]: more potent inhibition of pharyngeal pumping than motility
CMAX [4]: 12.2 ng/mL
thermal stability [5]: subject to decomposition at autoclave temperatures
inhibition of pharyngeal pumping compared with motility (Haemonchus contortus): more potent inhibition of pharyngeal pumping than motility
